# Measured values taken from patent US11274131B2, “IgM-mediated receptor clustering and cell modulation” (MAYO FOUNDATION FOR MEDICAL EDUCATION AND RESEARCH, priority 2007, dated 2022).
# “Also recorded” adds a separate entry of the source.
# Experiments:
# [1] = test system: B7-DC (PD-L2); details: cited from earlier work
# [2] = test system: CpG-treated DCs; assay: Antigen persistence in CpG-treated DCs; format: cell-based, mouse; details: CpG-treated wild type DCs or B7DC−/− DCs
# Protocol: FIG. 15 is a series of histograms showing restoration of antigen persistence in CpG-treated DCs expressing Kb-peptide constructs upon treatment with the appropriate MTab. DCs were untreated (blue) or treated with 10 ug/mL CpG (red) 48 hours prior to harvesting. They were then pulsed with Ovalbumin-Alexa647 and either hIgM12, hIgM22, or 28-13-3, and Ovalbumin-647 levels were measured in CD11c positive cells by flow cytometry.
# The ability of Kb-peptide expressing DCs to alter antigen processing was then tested. Untreated DCs take up fluorochrome-labeled protein, and the fluorochrome labeled protein persists over 24 hours, as measured by flow cytometry. DCs treated with a Toll receptor agonist (LPS, CpG, or Polyl:C) 24 hours prior to addition of protein lose their ability to take up and maintain this antigen. […] The ability of B7DC−/− DCs transduced with the Kb-peptide constructs was compared to wild type DCs or knockouts transduced with B7DC.
# [3] = test system: B16-Ova cells; assay: B16-Ova tumor challenge with Ova-pulsed antibody-treated DCs; format: in vivo, mouse; details: mice given wild type DCs or B7DC reconstituted knockout DCs treated with antibody
# Protocol: FIG. 17 is a graph depicting protection of mice from B16-Ova tumor challenge by injection of Ova-pulsed DCs expressing the Kb-peptide constructs treated with MTabs. Tumor area was measured daily, with tumor area on day 11 represented in the graph.
# DCs treated with hIgM12 can induce potent anti-tumor immunity. […] A variation of this model was used to determine whether Kb-peptide expressing DCs could induce protective tumor immunity. C57BL6 mice were injected subcutaneously in the right flank with 5×10^5 B16-Ova cells, a B16 variant engineered to express ovalbumin. Wild type DCs or B7DC−/− DCs transduced with mB7DC or the Kb constructs were pulsed with 10 ug/mL ovalbumin and treated with 10 ug/mL of either hIgM12 or hIgM22, 24 hours prior to injection. Before injection, DCs were washed and resuspended in 200 μL, HBSS. 10^6 DCs were injected intravenously by tail vein concurrent to B16 injection. Three mice were used in each treatment group. Tumor area was measured daily, and mice were sacrificed when tumor area reached 289 mm^2. […] Thus, DC expressing Kb-peptide fusions were able to induce protective tumor immunity.
# [4] = test system: mouse DC; assay: Calcium flux assay, mouse DC; format: cell-based
# Protocol: Changes in the levels of intracellular Ca^2+ were assessed in Indol-loaded cells by flow cytometry as described previously (Takahashi et al. (2005) J. Exp. Med. 201:647-657). Briefly, 5×10^6 DC/ml were incubated with 5 μM Indo-1 (Calbiochem) at 37° C. for 30 minutes. The cells were washed twice in serum free media and resuspended at 10^6/ml in PBS containing 0.5% BSA. The samples were analyzed by flow cytometry using a UV laser. Violet (390 nm) and blue (500 nm) fluorescence emissions were recorded. Baseline was recorded for two minutes. Antibody was added to the cell suspension (10 μg/ml of control antibody or B7-DC XAb) and the measurements were recorded for 8 additional minutes. In blocking experiments, mouse or human DC were pre-incubated with 10 μg/ml of purified anti-mouse B7-DC antibody (TY-25) or purified anti-human B7-DC antibody (MIH18) for 15 minutes, followed by collection of data for calcium flux as described above. Ionomycin added at 1 μg/ml after 2 minutes served as a positive control. The blue to violet ratio was calculated using FlowJo software (Tristar, Ashland, Oreg.).
# [5] = test system: mouse bone marrow-derived DC; assay: IL-6 ELISA of DC supernatants; format: cell-based; details: 48 hours
# Protocol: Six day mouse bone marrow-derived DC from wild type or IL-6 KO mice were stimulated with isotype control antibody sHIgM39 or B7-DC XAb. IL-6 levels in culture supernatants were assessed 48 hours later by ELISA.
# DC of wild type origin or from CD40 deficient mice were stimulated with 10 μg/ml control antibody or B7-DC XAb for 48 hours. Supernatants from the different treatment groups were harvested and quantified for the amount of IL-6 by sandwich ELISA as per the manufacturer's protocol (eBioscience, San Diego, Calif.).
# [6] = test system: bone-marrow derived DCs; assay: FRET on DCs expressing Kb-peptide constructs; format: cell-based, mouse
# Protocol: Kb, Kb-12p9A, Kb-22p3, and Kb-22p12p were placed in a VSV-G pseudotyped pBabe Puro retroviral vector, a vector based on the Maloney Murine Retrovirus. […] Retrovirus was produced by transient […] of 293T cells, and supernatant was concentrated 100:1 by ultracentrifugation on a 10% sucrose cushion. The retrovirus was titered with a colony forming unit assay of HT-1080 cells transduced with limiting dilutions of the supernatant concentrate, followed by selection with 2 ug/mL puromycin. To make DCs, bone marrow was harvested from Balb/c, C57BL6 mice or B7DC−/− mice on a C57BL6 background.
# Bone marrow was placed in RPMI+10% Cosmic Calf Serum with 1 ng/mL IL-4 and 10 ng/mL GM-CSF, and plated at 10^6/mL in 24 well plates. On day 2 post-plating, media was aspirated; fresh media was added with 0.5 MOI retrovirus and 4 ug/mL polybrene. Using this system, the peptide constructs were expressed in cultured DCs (FIG. 13).
# To directly compare the activity of the MTabs hIgM12 and hIgM22, a series of well-defined biological outputs of treatment of wild type DCs with hIgM12 was used. FRET was used as an output for formation of the multimolecular cap seen upon binding of hIgM12 to wild type DCs. The emission of phycoerythrin (PE) was used to excite APC, which normally emits in the FL4 channel but under FRET emits in the FL3 channel. Experiments were conducted to test FRET of CD40-PE to Class II APC, and CD80-PE to Class II APC (FIG. 14). Either wild type C57BL6 DCs or B7DC−/− DCs transduced with either B7DC or the Kb constructs were used. DCs were stained with the fluorochrome-labeled antibodies, and then treated for 15 minutes at 37° C. with 10 μg/mL of either hIgM12, hIgM22, or 28-13-3.
substance,measurement,setting,value
B7-DC XAb: human monoclonal IgM from a Waldenstrom's macroglobulinemia patient that binds and cross-links B7-DC on DC,binding to B7-DC on the surface of DC,[1],binds
same,antigen persistence,[2],restored to untreated levels
same,protection from tumor outgrowth,[3],successfully protected from tumor outgrowth
same,intracellular calcium signal,[4],prolonged calcium signals
same,IL-6 secretion,[5]; DC from CD40 KO mice,absence of NF-κB activation and IL-6 secretion; also recorded: do not secrete IL-6
same,IL-6 secretion,[5]; DC from wild type mice,producing IL-6
same,FRET response,[6]; B7DC−/− DCs with restored B7DC expression,responded as well
same,FRET response,[6]; B7DC−/− Kb-12p9A DCs,responded
same,FRET response,[6]; B7DC−/− Kb-22p12p DCs,responded
same,FRET response (CD40-PE or CD80-PE to Class II APC),"[6]; wild type DCs, 10 μg/mL, 15 minutes",responded
